Measured values as given in paper PMC4020785 (PLoS ONE, 2014).

How the values were obtained:
HIV = test system: HIV; set-up: method as in PMID 8787923; conditions: MT-4 cells; cited from earlier work
CD4+ T lymphocytes = assay: Activation markers CD25, CD38, HLA-DR, CD69 on CD4+ T lymphocytes (cytometry); type: cell-based, human; conditions: 1 µM
Method: For analysis of cell surface marker expression, MT-4 cells and bead-selected CD4+ T cells (described above) were incubated with 1 µM of each compound (ING-A, ING-B, ING-C, prostratin, PMA, and bryostatin-1) at 37°C for 48 h. […] Cells (both MT-4 cells and CD4+ T cells) were initially incubated for 2 h with different PKC inhibitors (GÖ6983, GÖ6976 or RO-31-8220). Then, ING-B, prostratin or PMA at 1 µM or TNF-α at 10 ng/mL were added to each condition and incubation was carried out for 24 h at 37°C. […] GFP expression, surface marker expression and activation marker were evaluated on a LSR Fortessa cytometer (BD Biosciences). Data analysis was performed using FlowJo software (Tree Star).

ACH-2 cells = assay: gag p24 production in ACH-2 cells (ELISA); type: cell-based, HIV-1; conditions: ACH-2, 1 µM, 48 h
Method: (§1) ACH-2 and J1.1 are clonal cell lines derived from CEM [52] and Jurkat cells, respectively, after infection with HIV-1. U1 cells were derived from the human promonocyte cell line U937 and chronically infected with HIV-1 [54]. Each cell line (1×10^6 cells) was incubated in the presence of 1 µM of diterpenes (ING-A, ING-B, ING-C, prostratin and PMA) or 10 ng/mL TNF-α for 48 h at 37°C. After incubation, cells were centrifuged and supernatants were collected for the quantitation of gag p24 antigen by ELISA, following the protocol described by the manufacturer (Perkin Elmer).

HIV-1 latency = test system: HIV-1 latency; set-up: method as in PMID 15284245; conditions: statement in discussion, reference given only in the next sentence; cited from earlier work
[1] = test system: HIV-1 p24 in J-Lat clones; assay: HIV-1 p24 production in J-Lat clones (ELISA); type: cell-based
Method: as §1
To assess whether the GFP expression levels induced by ISDs in J-Lats led to viral production, all five clones were stimulated with 1 µM of each compound for 48 h and production of HIV-1 p24 was measured in the culture supernatant by ELISA. Levels of p24 were proportional to GFP expression in clones 6.3 and 9.2, whereas levels in clone 8.4 were lower when compared to GFP (Figure 3A).

HIV LTR in J-Lat clones = assay: LTR-driven GFP expression in J-Lat clones; type: cell-based, HIV-1; conditions: J-Lat clones 9.2 and 10.6, 48 h, all concentrations tested
Method: J-Lat cells are Jurkat cells stably transfected by an HIV genome whose nef sequence was replaced by the GFP gene. Also, a frameshift mutation was introduced to the env gene to prevent virus spread. […] To test the ISDs, a million cells of each clone were treated with different concentrations of each compound (ING-A, ING-B, ING-C, prostratin and PMA) at 37°C. TNF-α (10 ng/mL) was used as a positive control. After 48 h, cells were collected, washed with saline solution (PBS) and GFP expression was evaluated in a FACScalibur cytometer (BD Biosciences). Data were analyzed with Cell Quest Pro software (BD Biosciences).

[2] = test system: CD4, CXCR4, CCR5 on CD4+ T lymphocytes; assay: Surface CD4, CXCR4, CCR5 expression in CD4+ T lymphocytes (cytometry); type: cell-based, human; conditions: CD4+ lymphocytes, 1 µM
Method: (§2) For analysis of cell surface marker expression, MT-4 cells and bead-selected CD4+ T cells (described above) were incubated with 1 µM of each compound (ING-A, ING-B, ING-C, prostratin, PMA, and bryostatin-1) at 37°C for 48 h. After incubation, cells were washed with PBS and incubated for 20 min at room temperature with antibodies against CD3-Brilliant Violet 510 (clone OKT3 – Biolegend), CD4-Qdot 655 (clone 53.5 - Life Technologies), CXCR4-PE (clone 1265 - BD Biosciences), CCR5-PerCP-Cy5.5 (clone 3A9 - BD Biosciences), CD69-Pacific Blue (clone FN50 – BD Biosciences), CD38-FITC (clone AT-1 – Stem Cell Technologies), CD25-APC (clone 2A3 – BD Biosciences), HLA-DR-Qdot 605 (clone TÜ36 – Life Technologies) and a marker for annexin V-FITC (Life Technologies). Cells (both MT-4 cells and CD4+ T cells) were initially incubated for 2 h with different PKC inhibitors (GÖ6983, GÖ6976 or RO-31-8220). Then, ING-B, prostratin or PMA at 1 µM or TNF-α at 10 ng/mL were added to each condition and incubation was carried out for 24 h at 37°C. Similar protocol was used for the analysis of PKC inhibitors in J-Lat clones 9.2 and 10.6. GFP expression, surface marker expression and activation marker were evaluated on a LSR Fortessa cytometer (BD Biosciences). Data analysis was performed using FlowJo software (Tree Star).

[3] = test system: CD4, CXCR4, CCR5 on MT-4 cells; assay: Surface CD4, CXCR4, CCR5 expression in MT-4 cells (cytometry); type: cell-based; conditions: 1 µM
Method: as §2

| Structure (SMILES) | concentration inhibiting HIV replication (as low as) (HIV) [µM] | CD25 surface expression (CD4+ T lymphocytes) | HLA-DR surface expression (CD4+ T lymphocytes) | p24 production (in words) (ACH-2 cells) | concentration required to reactivate HIV-1 latency (HIV-1 latency) | p24 in culture supernatant ([1]; J-Lat clone 15.4, 1 µM, 48 h) | HIV-LTR activation, overall comparison ([1]; J-Lat clones, GFP and p24 taken together) | levels of GFP expression, rank order (HIV LTR in J-Lat clones) | downregulation of surface CCR5 [2] | downregulation of surface CD4 and CXCR4 (in words) [3] |
| --- | --- | --- | --- | --- | --- | --- | --- | --- | --- | --- |
| CC(=O)OCC1=C[C@@H]2C(=O)[C@]3(C=C(C)[C@H](OC(C)=O)[C@@]3(O)[C@@H]1OC(C)=O)[C@H](C)C[C@@H]1[C@H]2C1(C)C [ITA, Ingenol 3,5,20-triacetate] | ≥ 0.05 |  |  |  |  |  |  |  |  |  |
| CC(=O)O[C@@]12C[C@@H](C)[C@@]3(O)[C@@H](C=C(CO)C[C@]4(O)C(=O)C(C)=C[C@@H]34)[C@@H]1C2(C)C [prostratin, 12-deoxyphorbol 13-acetate] |  | upregulated | not by prostratin | low levels of p24 production | higher than 2 µM | does not appear to work | the less effective compound among all tested | PMA = ING-B > ING-A = ING-C > prostratin | less efficient in downregulating surface expression of CCR5 | not by prostratin and bryostatin-1 |
